Measurements reported in patent US20240425500A1 (priority 2021, published 2024).

These molecules were tested on Pythium ultimum (assay: Pythium ultimum / liquid culture (seedling damping off)). Conditions: Globisporangium ultimum, liquid culture in PDB, 24 °C, 2-3 days after application, read-out: control of Pythium ultimum (inhibition of growth, photometric) compared to untreated control.
Assay type: cell-based
Protocol: Pythium ultimum/Liquid Culture (Seedling Damping Off):
Mycelia fragments and oospores of a newly grown liquid culture of the fungus are directly mixed into nutrient broth (PDB potato dextrose broth). After placing a (DMSO) solution of test compound into a microtiter plate (96-well format), the nutrient broth containing the fungal mycelia/spore mixture is added. The test plates are incubated at 24° C. and the inhibition of growth is determined photometrically 2-3 days after application.

| Compound | inhibition at 20 ppm [%] |
| --- | --- |
| COC(=O)Nc1ccc(-c2cnc3cc(Br)c(C(=O)N(C)c4ccc(Cl)cc4)cn23)cc1 [Compound 34, methyl N-[4-[7-bromo-6-[(4-chlorophenyl)-methyl-carbamoyl]imidazo[1,2-a]pyridin-3-yl]phenyl]carbamate] | ≥ 80 |
| COC(=O)Nc1ccc(-c2cnc3ccc(C(=O)N(C)c4cccc(C)c4)cn23)cn1 [Compound 54, methyl N-[5-[6-[methyl(m-tolyl)carbamoyl]imidazo [1,2-a]pyridin-3-yl]-2-pyridyl]carbamate] | ≥ 80 |
| COC(=O)Nc1ccc(-c2cnc3ccc(C(=O)N(C)c4ccncc4)cn23)cc1 [Compound 24, methyl N-[4-[6-[methyl(4-pyridyl)carbamoyl]imidazo [1,2-a]pyridin-3-yl]phenyl]carbamate] | ≥ 80 |
| CCN(C(=O)c1ccc2ncc(-c3ccc(NC(=O)OC)nc3)n2c1)c1ccc(C)c(F)c1 [Compound 127, methyl N-[5-[6-[ethyl-(3-fluoro-4-methyl-phenyl)carbamoyl]imidazo [1,2-a]pyridin-3-yl]-2-pyridyl]carbamate] | ≥ 80 |
| COC(=O)Nc1ccc(-c2cnc3ccc(C(=O)N(C)c4ccc(Br)cc4)cn23)cn1 [Compound 68, methyl N-[5-[6-[(4-bromophenyl)-methyl-carbamoyl]imidazo[1,2-a]pyridin-3-yl]-2-pyridyl]carbamate] | ≥ 80 |
| COC(=O)CN(C(=O)c1ccc2ncc(-c3ccc(NC(=O)OC)nc3)n2c1)c1ccc(F)c(OC)c1 [Compound 91, methyl 2-(4-fluoro-3-methoxy-N-[3-[6-(methoxycarbonyl-amino)-3-pyridyl]imidazo[1,2-a]pyridine-6-carbonyl]anilino)acetate] | ≥ 80 |
| CCOC(=O)c1cc(N(C)C(=O)c2ccc3ncc(-c4ccc(NC(=O)OC)nc4)n3c2)ccc1F [Compound 176, ethyl 2-fluoro-5-[[3-[6-(methoxy-carbonylamino)-3-pyridyl]imidazo[1,2-a]pyridine-6-carbonyl]-methyl-amino]benzoate] | ≥ 80 |
| COC(=O)Nc1ccc(-c2cnc3ccc(C(=O)N(C)c4ccc(OC(F)F)cc4)cn23)cn1 [Compound 66, methyl N-[5-[6-[[4-(difluoromethoxy)phenyl]-methyl-carbamoyl]imidazo[1,2-a]pyridin-3-yl]-2-pyridyl]carbamate] | ≥ 80 |
| COC(=O)Nc1ccc(-c2cnc3cc(C)c(C(=O)N(C)c4ccc(Cl)cc4)cn23)cc1 [Compound 18, methyl N-[4-[6-[(4-chlorophenyl)-methyl-carbamoyl]-7-methyl-imidazo[1,2-a]pyridin-3-yl]phenyl]carbamate] | ≥ 80 |
| COC(=O)Nc1ccc(-c2cnc3ccc(C(=O)N(CCC#N)c4ccc(C)cc4)cn23)cn1 [Compound 125, methyl N-[5-[6-[2-cyanoethyl(p-tolyl)carbamoyl]imidazo[1,2-a]pyridin-3-yl]-2-pyridyl]carbamate] | ≥ 80 |
| CCC(=O)Nc1ccc(-c2cnc3ccc(C(=O)N(C)c4ccc(F)cc4)cn23)cn1 [Compound 166, N-(4-fluorophenyl)-N-methyl-3-[6-(propanoylamino)-3-pyridyl]imidazo[1,2-a]pyridine-6-carboxamide] | ≥ 80 |
| COC(=O)Nc1ccc(-c2cnc3ccc(C(=O)N(C)c4ccc(C(C)=O)cc4)cn23)cn1 [Compound 104, methyl N-[5-[6-[(4-acetylphenyl)-methyl-carbamoyl]imidazo[1,2-a]pyridin-3-yl]-2-pyridyl]carbamate] | ≥ 80 |
| COC(=O)Nc1ccc(-c2cnc3ccc(C(=O)N(CC#N)c4ccccc4)cn23)cn1 [Compound 108, methyl N-[5-[6-[cyanomethyl(phenyl)carbamoyl]imidazo[1,2-a]pyridin-3-yl]-2-pyridyl] carbamate] | ≥ 80 |
| COC(=O)Nc1ccc(-c2cnc3ccc(C(=O)N(C)c4cc(C)cc(OC)c4)cn23)cn1 [Compound 59, methyl N-[5-[6-[(3-methoxy-5-methyl-phenyl)-methyl-carbamoyl]imidazo[1,2-a]pyridin-3-yl]-2-pyridyl]carbamate] | ≥ 80 |
| COC(=O)Nc1ccc(-c2cnc3ccc(C(=O)N(C)c4cccc(C5CC5)c4)cn23)cn1 [Compound 72, methyl N-[5-[6-[(3-cyclopropylphenyl)-methyl-carbamoyl]imidazo[1,2-a]pyridin-3-yl]-2-pyridyl]carbamate] | ≥ 80 |
| COC(=O)Nc1ccc(-c2cnc3ccc(C(=O)N(c4ccccc4)C4CC4)cn23)cn1 [Compound 147, methyl N-[5-[6-[cyclopropyl(phenyl)carbamoyl]imidazo [1,2-a]pyridin-3-yl]-2-pyridyl]carbamate] | ≥ 80 |
| COC(=O)Nc1ccc(-c2cnc3ccc(C(=O)N(CCO)c4ccccc4)cn23)cn1 [Compound 112, methyl N-[5-[6-[2-hydroxyethyl(phenyl)carbamoyl]imidazo [1,2-a]pyridin-3-yl]-2-pyridyl]carbamate] | ≥ 80 |

| Compound | inhibition at 20 ppm [%] |
| --- | --- |
| CCCN(C(=O)c1ccc2ncc(-c3ccc(NC(=O)OC)cc3)n2c1)c1ccc(Cl)cc1 [Compound 30, methyl N-[4-[6-[(4-chlorophenyl)-propyl-carbamoyl]imidazo[1,2-a]pyridin-3-yl]phenyl]carbamate] | ≥ 80 |
| COC(=O)Nc1ccc(-c2cnc3ccc(C(=O)N(CC(F)(F)F)c4ccc(Cl)cc4)cn23)cc1 [Compound 29, methyl N-[4-[6-[(4-chlorophenyl)-(2,2,2-trifluoroethyl)carbamoyl]imidazo [1,2-a]pyridin-3-yl]phenyl]carbamate] | ≥ 80 |
| COC(=O)Nc1ccc(-c2cnc3ccc(C(=O)N(C)c4cccc(Br)c4)cn23)cn1 [Compound 69, methyl N-[5-[6-[(3-bromophenyl)-methyl-carbamoyl]imidazo[1,2-a]pyridin-3-yl]-2-pyridyl]carbamate] | ≥ 80 |
| COC(=O)Nc1ccc(-c2cnc3ccc(C(=O)N(C)c4ccc(F)nc4)cn23)cn1 [Compound 60, methyl N-[5-[6-[(6-fluoro-3-pyridyl)-methyl-carbamoyl]imidazo[1,2-a]pyridin-3-yl]-2-pyridyl]carbamate] | ≥ 80 |
| COC(=O)Nc1ccc(-c2cnc3ccc(C(=O)N(C)c4ccc(Cl)c(C(F)(F)F)c4)cn23)cn1 [Compound 121, methyl N-[5-[6-[[4-chloro-3-(trifluoromethyl)phenyl]-methyl-carbamoyl]imidazo[1,2-a]pyridin-3-yl]-2-pyridyl]carbamate] | ≥ 80 |
| COC(=O)Nc1ccc(-c2cnc3ccc(C(=O)N(CCC#N)c4ccc(Cl)c(C)c4)cn23)cn1 [Compound 148, methyl N-[5-[6-[(4-chloro-3-methyl-phenyl)-(2-cyanoethyl)carbamoyl]imidazo[1,2-a]pyridin-3-yl]-2-pyridyl]carbamate] | ≥ 80 |
| COC(=O)Nc1ccc(-c2cnc3cc(OC)c(C(=O)N(C)c4ccc(Cl)cc4)cn23)cc1 [Compound 39, methyl N-[4-[6-[(4-chlorophenyl)-methyl-carbamoyl]-7-methoxy-imidazo[1,2-a]pyridin-3-yl]phenyl]carbamate] | ≥ 80 |
| COC(=O)Nc1ccc(-c2cnc3ccc(C(=O)N(C)c4ccc(C)c(C)c4)cn23)cc1 [Compound 13, methyl N-[4-[6-[(3,4-dimethylphenyl)-methyl-carbamoyl]imidazo[1,2-a]pyridin-3-yl]phenyl]carbamate] | ≥ 80 |
| COC(=O)Nc1ccc(-c2cnc3cc(F)c(C(=O)N(C)c4ccc(Cl)cc4)cn23)cc1 [Compound 42, methyl N-[4-[6-[(4-chlorophenyl)-methyl-carbamoyl]-7-fluoro-imidazo[1,2-a]pyridin-3-yl]phenyl]carbamate] | ≥ 80 |
| C#CCN(C(=O)c1ccc2ncc(-c3ccc(NC(=O)OC)cc3)n2c1)c1ccc(Cl)cc1 [Compound 33, methyl N-[4-[6-[(4-chlorophenyl)-prop-2-ynyl-carbamoyl]imidazo[1,2-a]pyridin-3-yl]phenyl]carbamate] | ≥ 80 |
| COC(=O)Nc1ccc(-c2cnc3cc(C#N)c(C(=O)N(C)c4ccc(Cl)cc4)cn23)cc1 [Compound 41, methyl N-[4-[6-[(4-chlorophenyl)-methyl-carbamoyl]-7-cyano-imidazo[1,2-a]pyridin-3-yl]phenyl]carbamate] | ≥ 80 |
| COC(=O)Nc1ccc(-c2cnc3ccc(C(=O)N(C)c4ccc(C)cc4)cn23)cc1 [Compound 16, methyl N-[4-[6-[methyl (p-tolyl)carbamoyl]imidazo [1,2-a]pyridin-3-yl]phenyl]carbamate] | ≥ 80 |
| COC(=O)Nc1ccc(-c2cnc3ccc(C(=O)N(CC#N)c4ccc(C)cc4)cn23)cn1 [Compound 143, methyl N-[5-[6-[cyanomethyl(p-tolyl)carbamoyl]imidazo [1,2-a]pyridin-3-yl]-2-pyridyl]carbamate] | ≥ 80 |
| CN(C(=O)c1ccc2ncc(-c3ccc(NC(=O)C4CC4)nc3)n2c1)c1ccc(F)cc1 [Compound 165, 3-[6-(cyclo-propanecarbonylamino)-3-pyridyl]-N-(4-fluorophenyl)-N-methyl-imidazo[1,2-a]pyridine-6-carboxamide] | ≥ 80 |
| COC(=O)Nc1ccc(-c2cnc3ccc(C(=O)N(CC4CC4)c4ccc(Cl)cc4)cn23)cc1 [Compound 28, methyl N-[4-[6-[(4-chlorophenyl)-(cyclopropylmethyl)carbamoyl]imidazo[1,2-a]pyridin-3-yl]phenyl]carbamate] | ≥ 80 |
| COC(=O)Nc1ccc(-c2cnc3ccc(C(=O)N(C)c4ccnc(C)c4)cn23)cc1 [Compound 12, methyl N-[4-[6-[methyl-(2-methyl-4-pyridyl)carbamoyl]imidazo [1,2-a]pyridin-3-yl]phenyl]carbamate] | ≥ 80 |
